Values belong to the compound of their own block, whether it stands above or below them.
How the values were obtained:
[1] = tested on: conscious, male hypertensive Dahl salt-sensitive rats; assay: Acute effects on MAP and HR by telemetry in Dahl salt-sensitive rats; assay type: in vivo, rat; settings: Dahl-S rats, doses 0.3-300 mg/kg
Protocol: The acute effects of COMPOUND on blood pressure, in particular on mean arterial blood pressure (hereafter “MAP”), and heart rate (hereafter “HR”) were evaluated by means of telemetry in conscious, male hypertensive Dahl salt-sensitive rats (hereafter “Dahl-S rats”-see details about this model in Rapp, Hypertension (1982), 4, 753-763). Elevated blood pressure is induced in Dahl-S rats by providing 1% sodium chloride in drinking water. Groups of 6-7 Dahl-S rats were used for the vehicle (7.5% gelatin aquous solution) and each dose of COMPOUND tested (0.3, 1, 3, 10, 30, 100, and 300 mg/kg). Effects of COMPOUND on HR and MAP were calculated for individual animals relative to the 24 h period before administering. The results obtained regarding MAP (maximal MAP decrease observed over 6 consecutive hours) are summarised in FIG. 9 (data are presented as mean±standard error of the mean). […] In contrast to MAP, HR was not affected.

[2] = tested on: subjects having essential hypertension; settings: phase 2 trial, cited from earlier work
[3] = tested on: conscious, male spontaneaously hypertensive rats; assay: Acute effects on MAP and HR by telemetry in spontaneously hypertensive rats; assay type: in vivo, rat; settings: SHRs, doses 1-300 mg/kg
Protocol: The acute effects of COMPOUND on blood pressure, in particular on mean arterial blood pressure (hereafter “MAP”), and heart rate (hereafter “HR”) were evaluated by means of telemetry in conscious, male spontancaously hypertensive rats (hereafter “SHRs”—see details about this model in Atanur et al., Genome Res. (2010), 20, 791-803). Groups of 4-6 SHRs were used for the vehicle (7.5% gelatin aquous solution) and each dose of COMPOUND tested (1, 3, 10, 30, 100, and 300 mg/kg). Effects of COMPOUND on HR and MAP were calculated for individual animals relative to the 24 h period before administering. The results obtained regarding MAP (maximal MAP decrease observed over 6 consecutive hours) are summarised in FIG. 11 (data are presented as mean±standard error of the mean). […] In contrast to MAP, HR was not affected.

[4] = tested on: male Wistar rats; assay: Effect on fluid retention (haematocrit) in Wistar rats; assay type: in vivo, rat; settings: single oral dose 1-30 mg/kg, 24 hours after administration
Protocol: A decrease in haematocrit (Hct) or haemoglobin occurs secondary to an increase in plasma volume and can be used as a marker of fluid retention. A single oral dose of aprocitentan (1-30 mg/kg) or vehicle (gelatin) was administered by gavage to male Wistar rats. Twenty-four hours after administration, sublingual blood was sampled under isoflurane-induced anesthesia. Haematocrit was measured using a hematology analyser.

[5] = tested on: conscious, male hypertensive deoxycorticosterone acetate salt rats; assay: Chronic effects of repeated oral administration in DOCA-salt rats; assay type: in vivo, rat; settings: oral 1, 10 and 100 mg/kg/day for 4 weeks
Protocol: The chronic effects of repeated administrations of doses of 1, 10 and 100 mg/kg/day of COMPOUND, in particular mean arterial blood pressure (hereafter “MAP”), and heart rate (hereafter “HR”), were evaluated in conscious, male hypertensive deoxycorticosterone acetate salt rats (hereafter “DOCA-salt rats”—see details about this model in Gavras et al., Circ. Res. (1975), 36, 300-309). In the DOCA-salt rats, hypertension is induced by the combination of unilateral nephrectomy, implantation of pellets of the mineralocorticoid analog DOCA, and provision of 1% sodium chloride in drinking water. The results of the DOCA-salt rats treated with COMPOUND were compared to those obtained for Wistar rats or for DOCA-salt rats that received only the vehicle (4% gelatin aquous solution). • a) The results obtained regarding MAP are summarised in FIG. 16 wherein each data point is presented as a 24-hour mean. 6 rats were used for each of the 5 test groups (Wistar control rats [bottom line], DOCA-salt control rats [2nd line from top at day 28] and DOCA-salt rats receiving repeated administrations of doses of 1 mg/kg/day [top line at day 28], 10 mg/kg/day [3rd line from top at day 28] and 100 mg/kg/day [4th line from top at day 28] of COMPOUND).

[6] = tested on: conscious, male hypertensive deoxycorticosterone acetate salt rats; assay: Acute effects on MAP and HR by telemetry in DOCA-salt rats; assay type: in vivo, rat; settings: doses 0.3-300 mg/kg
Protocol: The acute effects of COMPOUND on blood pressure, in particular on mean arterial blood pressure (hereafter “MAP”), and heart rate (hereafter “HR”) were evaluated by means of telemetry in conscious, male hypertensive deoxycorticosterone acetate salt rats (hereafter “DOCA-salt rats”—see details about this model in Gavras et al., Circ. Res. (1975), 36, 300-309). In the DOCA-salt rats, hypertension is induced by the combination of unilateral nephrectomy, implantation of pellets of the mineralocorticoid analog DOCA, and provision of 1% sodium chloride in drinking water. Groups of 6-11 DOCA-salt rats were used for the vehicle (7.5% gelatin aquous solution) and each dose of COMPOUND tested (0.3, 1, 3, 10, 30, 100, and 300 mg/kg). Effects of COMPOUND on HR and MAP were calculated for individual animals relative to the 24 h period before administering. The results obtained regarding MAP (maximal MAP decrease observed over 6 consecutive hours) are summarised in FIG. 10 (data are presented as mean±standard error of the mean). […] In contrast to MAP, HR was not affected.

[7] = Storage at room temperature of crystalline forms (XRPD, HPLC control); assay type: physicochemical; settings: 20-25° C.
Protocol: All XRPD patterns for the solid forms described herein have been obtained as described hereafter. X-ray powder diffraction patterns were collected on a Bruker D8 Advance X-ray diffractometer equipped with a Lynxeye detector operated with CuKα-radiation in reflection mode (coupled two Theta/Theta). Typically, the X-ray tube was run at of 40 kV/40 mA. A step size of 0.02° (2θ) and a step time of 76.8 see over a scanning range of 3-500 in 2θ were applied. The divergence slit was set to fixed 0.3. Powders were slightly pressed into a silicon single crystal sample holder with depth of 0.5 mm and samples were rotated in their own plane during the measurement. Diffraction data are reported using combined Cu Kα1 and Kα2 radiation, without Kα2 stripping. The accuracy of the 2θ values as provided herein is in the range of +/−0.1-0.2° as it is generally the case for conventionally recorded X-ray powder diffraction patterns. A sample of Form A crystals of the COMPOUND (as obtained according to Example 1 above) has been stored at a temperature of 20-25° C. at 92% relative humidity for 2 months. […] The same result was obtained after storage for 8 weeks under the above coditions. […] A sample of Form B crystals of a dichloromethane solvate of the COMPOUND (as obtained according to Example 2 above) has been stored in a closed vial (20 mg of Form B crystals being placed in a closed 4 mL vial) at a temperature of 20-25° C. for about 3 weeks. […] A sample of Form K crystals of a dimethylsulfoxide solvate of the COMPOUND (as obtained according to Example 7 above) has been stored in a closed vial (20 mg of Form K crystals being placed in a closed 4 mL vial) at a temperature of 20-25° C. for about 3 weeks.

[8] = Hygroscopicity by gravimetric vapour sorption (GVS); assay type: physicochemical; settings: 25° C., mass change between 40% and 80% RH, first adsorption scan
Protocol: Measurements are performed on a multi sample instrument SPS-100n (Projekt Messtechnik, Ulm, Germany) operated in stepping mode at 25° C. The sample is allowed to equilibrate at 40% RH before starting a pre-defined humidity program (40-0-95-0-95-40% RH, steps of 5% ΔRH and with a maximal equilibration time of 24 hours per step are applied. About 20 to 30 mg of each sample is used.
The mass change between 40% relative humidity and 80% relative humidity in the first adsorption scan is considered.
Form A e.g. as obtained from Example 1 is considered to be non-hygroscopic as determined by gravimetric vapor sorption (GVS) (see FIG. 19).

[9] = tested on: patients with diabetes; settings: cited from earlier work
[10] = tested on: patients with rHT; settings: 14 week phase 3 trial; cited from earlier work

haematocrit (Hct), marker of fluid retention [4]: did not impact on haematocrit
Structure (SMILES): NS(=O)(=O)Nc1ncnc(OCCOc2ncc(Br)cn2)c1-c1ccc(Br)cc1 [COMPOUND, {5-(4-bromo-phenyl)-6-[2-(5-bromo-pyrimidin-2-yloxy)-ethoxy]-pyrimidin-4-yl}-sulfamide]
effect on heart rate (HR) [1]: not affected | body weight ([2]; at higher doses): increased body weight at higher doses | cases of peripheral edema ([2]; at higher doses): four | control of blood pressure ([2]; essential hypertension, monotherapy): may result in efficacious control of blood pressure | hemoglobin concentration [2]: dose related decrease | effect on heart rate (HR) [3]: not affected | effect on DOCA-salt-induced increase in MAP [5]: dose-dependently attenuated the DOCA-salt-induced increase in MAP | effect on heart rate (HR) [5]: without changing HR | effect on heart rate (HR) [6]: not affected

solid form by X-ray powder diffraction after storage ([7]; 92% relative humidity, 2 months): still consisting only in Form A crystals | degradation by HPLC control (peak area %) after storage ([7]; 92% relative humidity, 8 weeks): no significant degradation | hygroscopicity (GVS) [8]: non-hygroscopic
Structure (SMILES): NS(=O)(=O)Nc1ncnc(OCCOc2ncc(Br)cn2)c1-c1ccc(Br)cc1 [Form A, {5-(4-bromo-phenyl)-6-[2-(5-bromo-pyrimidin-2-yloxy)-ethoxy]-pyrimidin-4-yl}-sulfamide]

solid form by X-ray powder diffraction after storage ([7]; closed vial, about 3 weeks): transformed into Form A crystals
Structure (SMILES): NS(=O)(=O)Nc1ncnc(OCCOc2ncc(Br)cn2)c1-c1ccc(Br)cc1 [Form B, {5-(4-bromo-phenyl)-6-[2-(5-bromo-pyrimidin-2-yloxy)-ethoxy]-pyrimidin-4-yl}-sulfamide]

Structure (SMILES): NS(=O)(=O)Nc1ncnc(OCCOc2ncc(Br)cn2)c1-c1ccc(Br)cc1 [Form C, {5-(4-bromo-phenyl)-6-[2-(5-bromo-pyrimidin-2-yloxy)-ethoxy]-pyrimidin-4-yl}-sulfamide]
hygroscopicity (GVS) [8]: slightly hygroscopic (increase in mass is less than 2% and equal to or greater than 0.2% mass/mass)

Structure (SMILES): COc1ccccc1Oc1c(NS(=O)(=O)c2ccc(C)cn2)nc(-c2ccncc2)nc1OC [avosentan]
treatment effect (reduction of proteinuria) [9]: showed significant treatment effect | discontinuation of trial medications due to adverse events ([9]; predominantly fluid overload and congestive heart failure): significantly increased discontinuation

Structure (SMILES): COc1cc(OC)nc(O[C@H](C(=O)O)C(OC)(c2ccccc2)c2ccccc2)n1 [darusentan]
withdrawal because of adverse events as compared with placebo [10]: More patients withdrew
